Our source for the IC50 values is ChEMBL document CHEMBL1155423, “Unprecedented NES non-antagonistic inhibitor for nuclear export of Rev from Sida cordifolia” (Bioorg Med Chem Lett, 2010).

pIC50: −log10 of the molar value. Bounds are passed on as bounds.

This assay can be described thus: Inhibition of CRM1 interaction with HIV1 HA-tagged Rev in HeLa cells assessed as inhibition of Rev nuclear export by indirect fluorescent antibody technique. The class given is cell-based.
As a reminder, the pIC50 is the IC50 on a negative log10 scale, so that one unit is a factor of ten. As to `CC(O)CCCCCCCC(=O)O` (configuration not stated), the negative-log IC50 (pIC50) is 4.68.
The result for `CCCCC/C=C\C=C\C(O)CCCCC(=O)O` (configuration not stated) reads under 4.52; that for `CCCCC/C=C\C=C\C(C)O` (configuration not stated), under 4.52; that for `CCCCC/C=C\C=C\C(O)CCCCCCCC(=O)O` (configuration not stated), 5.14.
To `CCCCC/C=C\C=C\C(O)CCC(=O)O` (configuration not stated) belongs under 4.52; to `CCCCCCCCCC(O)CCCCCCCC(=O)O` (configuration not stated), under 4.52.
To `CCCCC/C=C\C=C\CCCCCCCCC(=O)O` belongs 4.82.
